Results reported in publication PMC3210913 (Psychopharmacology, 2011).

Test system: serotonin 5-HT1A receptor
Test: in vivo PET displacement of [carbonyl-11C]WAY-100635
Parameters: species or system Macaca fascicularis
Details: 300 µg/kg i.v. cariprazine, raphe nuclei, ketamine/xylazine anaesthesia

Sequence of serotonin 5-HT1A receptor (UPI0032B04AFA 1-422): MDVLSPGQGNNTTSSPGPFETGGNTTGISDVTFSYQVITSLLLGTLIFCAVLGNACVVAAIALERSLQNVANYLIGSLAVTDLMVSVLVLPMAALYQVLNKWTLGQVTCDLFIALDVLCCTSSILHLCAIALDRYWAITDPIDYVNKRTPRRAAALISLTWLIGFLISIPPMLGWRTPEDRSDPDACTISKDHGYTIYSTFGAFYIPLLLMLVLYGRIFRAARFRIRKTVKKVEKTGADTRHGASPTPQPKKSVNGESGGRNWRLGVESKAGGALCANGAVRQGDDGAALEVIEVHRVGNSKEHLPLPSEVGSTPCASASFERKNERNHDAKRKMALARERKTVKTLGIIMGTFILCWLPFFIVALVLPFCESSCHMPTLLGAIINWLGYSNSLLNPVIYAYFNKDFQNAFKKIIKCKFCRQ

`CN(C)C(=O)N[C@H]1CC[C@H](CCN2CCN(c3cccc(Cl)c3Cl)CC2)CC1` [cariprazine] was tested, and the “Receptor occupancy (%) / Cariprazine (μg/kg) / 300” value was 30%.
